Reference: ChEMBL document CHEMBL1201862, “PubChem BioAssay data set” (2004)
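A five-concentration, 48-hour dose response in 96-well plates underlies each endpoint, interpolated linearly between surrounding concentrations. GI50 is the concentration that inhibits growth by half.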 Calls of active or inactive are those of the source. Cut-off read from the data, not from the text of the source: active = GI50 up to about 1.1 µM and inactive = higher.

How the values were obtained:
Test in all cases: inhibition of tumour cell growth, NCI panel, 48 h
[1] = tested on: DMS-273
[2] = tested on: HOP-18
[3] = tested on: KM-20L2
[4] = tested on: RXF 631
[5] = tested on: DMS-114
[6] = tested on: XF498
[7] = tested on: LXFL 529
[8] = tested on: DU-145
[9] = tested on: PC-3

SMILES	GI50 [1]	GI50 [2]	GI50 [3]	GI50 [4]	GI50 [5]	GI50 [6]	GI50 [7]	GI50 [8]	GI50 [9]
COc1cc(/C=C/C2=C(C#N)C(=O)OC2(C)C)ccc1O	> 100 µM (inactive)	> 100 µM (inactive)	58.5 µM (inactive)	93.1 µM (inactive)	–	–	–	–	–
ClCc1nnc2n1-c1ccc(Cl)cc1SC2	2.92 µM (inactive)	2.92 µM (inactive)	4.67 µM (inactive)	–	2.8 µM (inactive)	5.57 µM (inactive)	–	–	–
O=C1C2Cc3ccccc3CN2C(=O)N1CN1CCCCC1 (configuration not stated)	50.8 µM (inactive)	–	> 100 µM (inactive)	–	> 100 µM (inactive)	> 100 µM (inactive)	> 100 µM (inactive)	–	–
O=C(O)c1ccccc1C(=O)c1ccco1	> 100 µM (inactive)	> 100 µM (inactive)	> 100 µM (inactive)	–	> 100 µM (inactive)	> 100 µM (inactive)	–	–	–
NC(=O)C1(c2ccccc2)Nc2ccccc2S1 (configuration not stated)	> 100 µM (inactive)	> 100 µM (inactive)	> 100 µM (inactive)	–	> 100 µM (inactive)	> 100 µM (inactive)	> 100 µM (inactive)	–	–
COc1ccc(Sc2ccccc2N)cc1	30.6 µM (inactive)	> 100 µM (inactive)	52.6 µM (inactive)	–	29.8 µM (inactive)	0.162 µM (active)	41 µM (inactive)	–	–
Cc1c(N=NN(C)C)cc[n+]([O-])c1C	> 100 µM (inactive)	> 100 µM (inactive)	> 100 µM (inactive)	–	> 100 µM (inactive)	> 100 µM (inactive)	–	–	–
COc1cc2c(cc1OC)-c1c(cnn1C1OC(COC(C)=O)C(OC(C)=O)C(OC(C)=O)C1OC(C)=O)CC2 (configuration not stated)	> 100 µM (inactive)	–	> 100 µM (inactive)	–	72.6 µM (inactive)	–	> 85.7 µM (inactive)	–	–
C=C/C(C)=C/[C@H](C)C(=O)C[C@H](O)CC1CC(=O)NC(=O)C1	34.9 µM (inactive)	19 µM (inactive)	19.2 µM (inactive)	–	38.3 µM (inactive)	2.86 µM (inactive)	–	–	–
COC(=O)C1CCC(=O)N1/C(C)=N/NC(=O)Nc1ccc(Cl)c(Cl)c1 (configuration not stated)	> 100 µM (inactive)	–	32.2 µM (inactive)	–	> 100 µM (inactive)	> 100 µM (inactive)	28 µM (inactive)	–	–
Nc1nnc(N)n1NC(=O)C(=O)Nc1ccc([N+](=O)[O-])cc1	> 100 µM (inactive)	> 100 µM (inactive)	> 100 µM (inactive)	> 100 µM (inactive)	> 100 µM (inactive)	> 100 µM (inactive)	–	–	–
O=c1cnn(C2OC(CO)C(O)C2O)c(=S)[nH]1 (configuration not stated)	2.31 µM (inactive)	> 79.1 µM (inactive)	28.9 µM (inactive)	14.3 µM (inactive)	29.6 µM (inactive)	> 100 µM (inactive)	11.5 µM (inactive)	9.4 µM (inactive)	8.73 µM (inactive)
C#CC[C@@]12CC(=O)C[C@@H]1CCC1(C2)OCCO1.C#CC[C@]12CC(=O)CC[C@H]1CC(=O)C2	> 100 µM (inactive)	90.6 µM (inactive)	> 100 µM (inactive)	–	–	> 100 µM (inactive)	–	–	–
COc1ccc(C2C(C(=O)O)=C(COC(C)=O)Oc3cc4c(cc32)OCO4)cc1 (configuration not stated)	> 100 µM (inactive)	> 100 µM (inactive)	> 100 µM (inactive)	> 100 µM (inactive)	> 100 µM (inactive)	40.7 µM (inactive)	–	–	–
Nc1nn(CC(O)CO)c(=O)s1 (configuration not stated)	> 100 µM (inactive)	> 100 µM (inactive)	> 100 µM (inactive)	> 100 µM (inactive)	> 100 µM (inactive)	> 100 µM (inactive)	> 100 µM (inactive)	–	–
CCCNC(/C=C/[Si](C)(C)C)CO.CCCNCC(O)/C=C/[Si](C)(C)C (configuration not stated)	–	> 100 µM (inactive)	> 100 µM (inactive)	> 100 µM (inactive)	> 100 µM (inactive)	22 µM (inactive)	> 100 µM (inactive)	–	–
N#C/C(=C\c1cccc(O)c1O)C(N)=O	57.3 µM (inactive)	–	52.5 µM (inactive)	48.8 µM (inactive)	29.9 µM (inactive)	31.4 µM (inactive)	50.6 µM (inactive)	–	–
C/C([O-])=C(/c1nc(-c2ccc([N+](=O)[O-])o2)no1)[n+]1cc(C)ccc1C	11.7 µM (inactive)	10.2 µM (inactive)	12.6 µM (inactive)	–	16.3 µM (inactive)	7.48 µM (inactive)	–	–	–
COC(=O)C1=COC2OC3/C(=C\c4ccc(O)c(OC)c4)C(=O)OC34C=CC1C24 (configuration not stated)	16.3 µM (inactive)	–	17.8 µM (inactive)	–	24.7 µM (inactive)	3.46 µM (inactive)	13.5 µM (inactive)	–	–
CCCCOP1(=O)C=CC(Cl)=C(C)C1 (configuration not stated)	–	44.5 µM (inactive)	22.8 µM (inactive)	29.1 µM (inactive)	25.1 µM (inactive)	19.2 µM (inactive)	27.9 µM (inactive)	–	–
COC1C=CC(O)C(CO)O1 (configuration not stated)	–	–	> 100 µM (inactive)	–	–	> 100 µM (inactive)	> 100 µM (inactive)	–	–
CSc1nc2c(ncn2C2OCC(O)C(O)C2O)c(=O)n1C (configuration not stated)	> 100 µM (inactive)	> 100 µM (inactive)	> 100 µM (inactive)	–	> 100 µM (inactive)	> 100 µM (inactive)	–	–	–
COc1cc(C2c3cc4c(cc3[C@@H](Nc3cccc(C(C)=O)c3)C3COC(=O)[C@H]23)OCO4)cc(OC)c1O (some centres not stated)	0.0497 µM (active)	1 µM (active)	1.66 µM (inactive)	–	0.505 µM (active)	0.573 µM (active)	–	–	–
CC1C[C@]2(C[C@@H](C)C(=O)O2)OC2CC3(C)C4CCC5C(C)(C)OC(=O)CC[C@@]56C[C@@]46CC[C@]3(C)C12 (some centres not stated)	> 100 µM (inactive)	> 100 µM (inactive)	–	> 100 µM (inactive)	> 100 µM (inactive)	> 100 µM (inactive)	> 100 µM (inactive)	–	–
COc1cc(C2c3cc4c(cc3[C@@H](Nc3ccc(N5CCOCC5)cc3)C3COC(=O)[C@H]23)OCO4)cc(OC)c1O (some centres not stated)	0.238 µM (active)	0.977 µM (active)	1.57 µM (inactive)	–	–	0.392 µM (active)	–	–	–
CN(C(=O)c1ccc(OCCCC(=O)O)c(Cl)c1Cl)C1CCCC1	> 100 µM (inactive)	> 73.1 µM (inactive)	> 100 µM (inactive)	–	69.5 µM (inactive)	28.4 µM (inactive)	–	–	–
CCCCCCCCCCCC1=C(O)C(=O)C=C(O)C1=O [EMBELIN]	4.72 µM (inactive)	4.58 µM (inactive)	7.43 µM (inactive)	–	5.47 µM (inactive)	–	–	–	–
COc1ccc2cc1Oc1ccc(cc1)C[C@H]1c3cc(c(OC)cc3CCN1C)Oc1c(O)c(OC)cc3c1[C@H](C2)N(C)CC3 [FANGCHINOLINE]	14.7 µM (inactive)	32.2 µM (inactive)	1.7 µM (inactive)	–	24.7 µM (inactive)	27.4 µM (inactive)	–	–	–
